Measurements as given in patent US12594292B2, “Antiviral prodrugs, intermediate-and long-acting formulations and methods” (priority 2022, dated 2026).
Where two headings read alike, the source gives them in different places.

How the values were obtained:
human PBMCs = assay: Cytotoxicity (CC50) in human PBMCs; type: cell-based; conditions: read-out: CC50
HFF cells = assay: Persistence of TFVpp in HFF cells after a 3 day exposure; conditions: HFF cells, 1 micromolar drug for 3 days
Description: HFF cells were exposed to 1 micromolar drug for 3 days. At days 0, 1, 2, 4, 7, 14, 21, and 28, cells were trypsinized, counted, and processed for LC/MS measurement of TFVpp. Data were expressed at ftg/cell. nm=not meaningful; ftg—gemtogram.

HIV-1 [1] = conditions: for EC50: HIV infected human PBMCs
Method: (§2) Antiviral activities were determined in HIV infected human PBMCs.

[2] = Cytotoxicity (CC50) in human PBMCs; type: cell-based; conditions: human PBMCs
HIV-1 [3] = assay: microbe, parasite or virus in culture; conditions: Human immunodeficiency virus 1, PBMC
Method: as §2

HCoV-229E = type: cell-based, human Coronavirus 229E
SARS-CoV-2 [4] = assay: SARS-CoV-2 infection assay in Huh7.5 cells, nucleocapsid immunofluorescence (Example 6); type: cell-based; conditions: MOI 0.1, 48 hours
Huh7.5 cells [5] = assay: Cytotoxicity in Huh7.5 cells, nuclei count (Example 6); type: cell-based, human
SARS-CoV-2 [6] = assay: SARS-CoV-2 infection assay in TMPRSS2-Vero cells, nucleocapsid immunofluorescence (Example 6); type: cell-based; conditions: MOI 0.01, 32 hours
TMPRSS2-Vero cells = assay: Cytotoxicity in TMPRSS2-Vero cells, nuclei count (Example 6); type: cell-based; conditions: TMPRSS2-Vero cells; read-out: CC50
SRV A2 strain of RSV = assay: RSV infection in Hep-2 cells, CPE reduction; type: cell-based, respiratory syncytial virus; conditions: RSV A2 in Hep-2 cells, 72 to 96 hours
Method: Methods: The SRV A2 strain of RSV was obtained from the ATCC. Ten thousand Hep-2 cells were seeded into each well of a 96-well plate in EMEM with 10% fetal bovine serum and 1% penicillin and streptomycin. Each well was inoculated with 100 TCID50 of virus. Two hours later wells were washed once with medium and serial four-fold dilutions of candidate antiviral drugs were added.

Hep-2 cells = assay: Cell viability assay for the RSV table (CC50); type: cell-based; conditions: Hep-2 cells; read-out: CC50
Calu-3 cells = assay: Cytotoxicity in Calu-3 cells, nuclei count or CellTiter-Glo (Example 6); conditions: for select compounds up to 100 μM by CellTiter-Glo
Method: After which an equal volume of CellTiter-Glo reagent (Cat. #G7570, Promega, Madison, WI) was added, mixed and luminescence recorded on a Veritas Microplate Luminometer (Turner BioSystems) according to manufacturer recommendations.

SARS-CoV-2 [7] = assay: SARS-CoV-2 infection assay in Calu-3 cells, nucleocapsid immunofluorescence (Example 6); conditions: MOI 0.01, 44 hour
[8] = tested on: USA WA-01 strain of SARS CoV-2; assay: Anti-coronavirus activity in Vero E6 cells, qPCR of spike RNA (Example 2); type: cell-based
Method: (§1) Ten thousand Vero E6 cells were seeded in 100 microliters of culture medium in 96 well plates. The following day serial two-fold dilutions of antiviral compounds or the DMSO-containing vehicle were added to each well. The USA WA-01 strain of SARS CoV-2 was added to each well at a multiplicity of infection of 0.1 thirty minutes later. Cells were incubated for 48 hours, washed twice in PBS and lysed with TRIzol. RNA was extracted using Directzol micro RNA columns. RNA was made into cDNA and assayed for the SARS CoV-2 spike protein and for a housekeeping gene (RPLPO) RNA by qPCR. Data represents the average of duplicate wells. Cellular cytotoxicity was also measured in VERO E6 cells. […] Cytotoxicity (CC50) was assessed using a commercially available MTT assay.

VERO E6 cells [9] = assay: Cellular cytotoxicity in Vero E6 cells, MTT assay (Example 2); type: cell-based
Method: as §1

[10] = tested on: SARS-CoV-2 isolate USA-WA1/2020; assay: SARS-CoV-2 infection in Vero E6 cells, qRT-PCR of Spike RNA (Example 3); type: cell-based
VERO E6 cells [11] = assay: CellTiter-Glo luminescent cell viability assay, Vero E6 (Example 3); type: cell-based
Method: CellTiter-glo luminescent cell viability assay: Approximately 10^4 Vero E6 cells per well were seeded in opaque walled 96 well cell culture plates and incubated overnight. Compounds or controls were added at the indicated concentrations. […] Viability was calculated compared to untreated controls and CC50 values were calculated using Prism 8.
Determination of Cytotoxicity: The 50% cytotoxic concentrations (CC50) were determined with Cell Titer Glo (Cat. #G7570, Promega, Madison, WI) according to the manufacturer's instructions. The calculated CC50 values are shown in the foregoing table.
Relative viability was measured by CellTiter-Glo luminescent cell viability assay, as depicted at FIG. 2.

[12] = tested on: SARS-CoV-2 isolate USA-WA1/2020; assay: SARS-CoV-2 infection in Vero E6 cells, qRT-PCR (Example 7); type: cell-based
[13] = tested on: SARS-CoV-2 isolate USA-WA1/2020; assay: SARS-CoV-2 infection in PSC-human lung cells, qRT-PCR (Example 7); type: cell-based; conditions: PSC-human lung cells, MOI 0.01, 48 hours
[14] = tested on: SARS-CoV-2 isolate USA-WA1/2020; assay: SARS-CoV-2 infection in Huh7.5 cells, qRT-PCR (Example 7); type: cell-based
Huh7.5 cells [15] = assay: Cell viability assay CellTiter-Glo, Huh7.5 cells (Example 7)
VERO E6 cells [16] = assay: Cell viability assay CellTiter-Glo, Vero E6 cells (Example 7)
[17] = variation of the diester substituent of ODE-TFV
[18] = Vero E6 cells, MOI 0.1, 48 hours
[19] = Vero E6 cells, MOI 0.01, 48 hours, mean±SD
[20] = Vero E6 cells, MOI 0.01, 48 hours
[21] = Huh7.5 cells, MOI 0.01, 48 hours, qRT-PCR (Example 7)

CCCCCCCCCCCCCCCCCCOCCOP(=O)(CO[C@H](C)Cn1cnc2c(N)ncnc21)Oc1ccccc1 (some centres unmarked) [ODE-Ph-TFV]
CC50 (human PBMCs; [17]): 3930 nM
Cmax of TFVpp (HFF cells): 8.1 ftg/cell
T1/2 of TFVpp (HFF cells): 3.0
T1/10 of TFVpp (HFF cells): 15.1
Tmax of TFVpp (HFF cells): 24 h
Selectivity Index (HIV-1 [1]; [17]): 1640
EC50 (HIV-1 [1]; [17]): 2.4 nM

CCCCCCCC/C=C\CCCCCCCCOCCOP(=O)(O)CO[C@H](C)Cn1cnc2c(N)nc(N)nc21 [OLE-PMPDAP, Oleyloxyethyl 9-(R)-[(2-phosphonomethoxy)propyl]-2,6-diaminopurine]
CC50 [2]: 15000 ± 12300 nM
Selectivity Index (HIV-1 [1]; CC50/EC50): 150,000
EC50 (HIV-1 [3]): 0.1 ± 0.03 nM

CCCCCCCCCCCCCCCCOC[C@H](COP(=O)(O)OC[C@H]1O[C@@](C#N)(c2ccc3c(N)ncnn23)[C@H](O)[C@@H]1O)OCc1ccc(OC)c(F)c1 [Compound 15c, 1-O-Hexadecyl-2-O-(3-fluoro, 4-methoxybenzyl)-sn-glyceryl-phospho-RVn]
EC50 (HCoV-229E): 360 ± 54 nM
EC90 (HCoV-229E): 1120 ± 100 nM
EC50 (SARS-CoV-2 [4]): 49 nM
EC90 (SARS-CoV-2 [4]): 113 nM
CC50 (Huh7.5 cells [5]; Huh7.5 cells, read-out: CC50): > 20000 nM
EC50 (SARS-CoV-2 [6]): 397 nM
EC90 (SARS-CoV-2 [6]): 869 nM
CC50 (TMPRSS2-Vero cells): > 20000 nM
EC50 (SRV A2 strain of RSV): 34 nM
EC90 (SRV A2 strain of RSV): 68 nM
CC50 (Hep-2 cells): 20600 nM
CC50 (MRC-5 cells): > 50000 nM
CC50 (Calu-3 cells): 75600 ± 3960 nM
EC50 (SARS-CoV-2 [7]): 51 ± 6 nM
EC90 (SARS-CoV-2 [7]): 221 ± 58 nM

CCCCCCCCCCCCCCCCCCOCCOP(=O)(O)CO[C@H](C)Cn1cnc2c(N)nc(N)nc21 [ODE-PMPDAP]
CC50 (human PBMCs; human PBMCs): 7000 ± 7100 nM
Selectivity Index (HIV-1 [1]; CC50/EC50): 77,700
EC50 (HIV-1 [1]): 0.09 ± 0.05 nM

CCCCCCCC/C=C\CCCCCCCCOC[C@H](COP(=O)(O)OC[C@H]1O[C@@](C#N)(c2ccc3c(N)ncnn23)[C@H](O)[C@@H]1O)OCc1ccc(OC)c(F)c1 [Compound 15m, 1-O-Oleyl-2-O-(3-fluoro, 4-methoxybenzyl)-sn-glyceryl-phospho-RVn]
EC50 (HCoV-229E): 60 ± 14 nM
EC90 (HCoV-229E): 110 ± 20 nM
EC50 (SARS-CoV-2 [4]): 54 nM
EC90 (SARS-CoV-2 [4]): 102 nM
CC50 (Huh7.5 cells [5]; Huh7.5 cells, read-out: CC50): > 20000 nM
EC50 (SARS-CoV-2 [6]): 296 nM
EC90 (SARS-CoV-2 [6]): 524 nM
CC50 (TMPRSS2-Vero cells): > 20000 nM
EC50 (SRV A2 strain of RSV): 5 nM
EC90 (SRV A2 strain of RSV): 9.4 nM
CC50 (Hep-2 cells): 12500 nM
CC50 (MRC-5 cells): > 50000 nM
CC50 (Calu-3 cells): 58500 ± 6280 nM

CCCCCCCCCCCCCCCCCCOCCOP(=O)(O)OC[C@H]1O[C@@H](n2cc(F)c(N)nc2=O)CS1 [ODE-P-Emtricitabine, Octadecyloxyethyl-phospho-emtricitabine]
CC50 [2]: 35600 ± 12900 nM
Selectivity Index (HIV-1 [1]; CC50/EC50): 3708
EC50 (HIV-1 [3]): 9.6 ± 3.1 nM

CCCCCCCCCCCCCCCCCCOCCOP(=O)(CO[C@H](C)Cn1cnc2c(N)ncnc21)OCc1ccccc1 (some centres unmarked) [ODE-Bn-TFV, Octadecyloxyethyl benzyl tenofovir]
CC50 [2]: 8720 nM
Selectivity Index (HIV-1 [1]; CC50/EC50): 5130
EC50 (HIV-1 [3]): 1.7 ± 1.5 nM

CCCCCCCCCCCCCCCCOCCCOP(=O)(O)OC[C@H]1O[C@@](C#N)(c2ccc3c(N)ncnn23)[C@H](O)[C@@H]1O [Compound 4b, 3-(Hexadecyloxy)propyl-phospho-RVn]
Selectivity Index ([8]; CC50/EC50, Vero E6): 25.0
times more active than remdesivir ([8]; USA WA-1 strain, Vero E6 cells): 3.3
EC50 [8, 18]: 840 nM
EC90 [8, 18]: 1580 nM
CC50 (VERO E6 cells [9]): 21000 nM
Selectivity ([10]; CC50/EC50, Vero E6): 52
EC50 [10, 19]: 960 ± 170 nM
EC90 [10, 19]: 2100 ± 780 nM
CC50 (VERO E6 cells [11]): 51000 nM
EC50 (HCoV-229E): 3020 ± 360 nM
EC90 (HCoV-229E): 6600 ± 1140 nM
CC50 (Huh7.5 cells [5]): > 20000 nM
Selectivity ([12]; CC50/EC50, Vero E6 cells): >158
EC50 [12, 20]: 630 nM
EC90 [12, 20]: 730 nM
EC50 [13]: 350 nM
EC90 [13]: 940 nM
Selectivity ([14]; CC50/EC50, Huh7.5 cells): >526
EC50 [14, 21]: 190 nM
EC90 [14, 21]: 400 nM
EC50 ([14]; Huh7.5 cells, MOI 0.01, 48 hours, qRT-PCR (Example 7), listed as HDP-P-RVn): 190 nM
CC50 (MRC-5 cells): 32100 ± 17900 nM
CC50 (Huh7.5 cells [15]): > 100000 nM
CC50 (VERO E6 cells [16]): > 100000 nM
